Source: patent US9855249B2, “Isoxazole compounds and methods for the treatment of cystic fibrosis” (FLATLEY DISCOVERY LAB, LLC, priority 2014, dated 2018)

Test system: CFTR mediated chloride current in Primary CF airway epithelial cells
Assay: Equivalent current assay in primary CF airway epithelial cells (NAUC)
Format: cell-based
Conditions: 24 h treatment, stimulated with forskolin and VX770, normalized to positive control 3 μM VX809
Experimental: Primary CF airway epithelial cells were obtained from the UNC Cystic Fibrosis Tissue Procurement and Cell Culture Core. The cells are grown at 37° C. in a Heracell 150i incubator using growth media (BEGM, Fischer). Cells were then transferred to differentiation media (ALI, UNC) for a minimum of 4 weeks on coated Costar snapwells. Two days before the Ussing assay the mucus on the apical surface of the cells was aspirated after incubating with 200 μL of differentiation Media for at least thirty (30) minutes. One day before the Ussing assay test compounds were added to the basolateral surface of the cells at various test concentrations dissolved in DMSO. Duplicate wells were prepared giving a n=3 or n=4 protocol.
Cells were treated for 24 hours with various combinations and concentrations of the test articles, reference standard (3 μM VX809, positive control). Compounds stock solutions were prepared in DMSO and diluted 1/1000 into ALI media to their final assay concentration. Cells were treated with combination solutions (2 mL of each dilution) and incubated at 37° C. for 24 h.
For the equivalent current assay, cells on four Transwell (24-well) plates were treated. Each Transwell plate was filled with 200 μl of HBS on the apical surface and 2 ml on the basolateral surface. Plates were placed horizontally in a heated mount at 37° C., and equilibrated for several minutes. Resting current was measured for 15 min and then blocked by the apical addition of 5 μM benzamil. After 20 min, 10 μM forskolin and 1 μM VX770 were added to both the apical and basolateral side to stimulate CFTR. An increase in chloride current is seen as an upward deflection of the trace. After another 30 min, CFTR-172 (a CFTR inhibitor, 2 μM) and/or bumetanide (20 μM) was added to block CFTR mediated chloride current.
The raw data, current vs. time for the Ussing chamber (sampling interval: 10 s) and voltage vs. time and resistance vs. time for the equivalent current assay (sampling interval: 5 minutes) were transferred to Excel (Microsoft Office Professional, version 14.0.7106.5003) for analysis. CFTR specific current was measured as the average amplitude of the increase in current elicited upon addition forskolin and ending upon addition of the CFTR channel specific blocker CFTR-172. This average is equivalent to the sum of the average forskolin activated and the average VX770-potentiated currents. The average current measured in vehicle (0.1% DMSO) treated cells, Iv, was subtracted from the current for the test article, ITA, or from the corrector reference standard VX809 (3 μM ISTD. For replicate measurements, the average vehicle subtracted response for the test article, was normalized to the average vehicle subtracted […] response of the reference corrector VX809 (3 μM). INSC=(ITA−IV)(ave)/(ISTD−IV)(ave) (Equation 1)
A second endpoint, for the equivalent current assay, evaluated was NAUC, the normalized area under the curve (AUC) measuring the response after addition of forskolin and VX770 to the time point right before the addition of the CFTR inhibitor. The AUC is effectively the average response multiplied by the duration of the response. The AUC of the test article, AUCTA was then corrected by subtracting the average vehicle response, AUCV,ave over the same time range, and normalized as for the inhibitor-sensitive current to the difference of the corrector reference standard VX809 (3 μM VX809r,ave and the vehicle response: NAUCTA=[AUCTA−AUCV,ave]/[AUCVx809r,ave−AUCV,ave](Equation 2).
The normalized value for DMSO is 0.0 and for VX-809 alone is 1.0. Combinations of compounds with VX-809 that give normalized values greater than 1.0 show activity in the combination assay. A value of 2 means the test compound doubles the effect to VX-809 alone.
Experiments were run with a minimum of n=4 replicates per concentration. […]

Structure (SMILES) | NAUC (normalized area under the curve), Test Conc 3 uM | NAUC (normalized area under the curve), Test Conc 10 uM
CN1CCN(C(=O)CCNC(=O)c2cc(-c3ccc(F)cc3)on2)CC1 [Example 1, 5-(4-fluorophenyl)-N-(3-(4-methylpiperazin-1-yl)-3-oxopropyl)isoxazole-3-carboxamide] | ++ (NAUC “++” refers to an observed NAUC 170-140% of positive control) | +++ (NAUC “+++” refers to an observed NAUC >170% of positive control)
O=C(NCCC(=O)N1CCCCC1)c1cc(-c2ccc(F)cc2)on1 [Example 4] | ++ (NAUC “++” refers to an observed NAUC 170-140% of positive control) | +++ (NAUC “+++” refers to an observed NAUC >170% of positive control)
CCNC(=O)c1cc(-c2ccc(F)cc2)on1 [Example 26] | +++ (NAUC “+++” refers to an observed NAUC >170% of positive control) | +++ (NAUC “+++” refers to an observed NAUC >170% of positive control)
O=C(NCC(F)(F)F)c1cc(-c2ccc(F)cc2)on1 [Example 35] | ++ (NAUC “++” refers to an observed NAUC 170-140% of positive control) | +++ (NAUC “+++” refers to an observed NAUC >170% of positive control)
O=C(NCCc1ccccc1)c1cc(-c2ccc(F)cc2)on1 [Example 17, 5-(4-fluorophenyl)-N-phenethylisoxazole-3-carboxamide] | + (NAUC “+” refers to an observed NAUC <140% of positive control) | ++ (NAUC “++” refers to an observed NAUC 170-140% of positive control)
O=C(NCC(c1ccccc1)c1ccccc1)c1cc(-c2ccc(F)cc2)on1 [Example 32] | + (NAUC “+” refers to an observed NAUC <140% of positive control) | + (NAUC “+” refers to an observed NAUC <140% of positive control)
O=C(NCCOc1ccccc1)c1cc(-c2ccc(F)cc2)on1 [Example 34] | + (NAUC “+” refers to an observed NAUC <140% of positive control) | + (NAUC “+” refers to an observed NAUC <140% of positive control)
CN1CCN(C(=O)CCCCNC(=O)c2cc(-c3ccccc3)no2)CC1 [Example 59] | +++ (NAUC “+++” refers to an observed NAUC >170% of positive control) | +++ (NAUC “+++” refers to an observed NAUC >170% of positive control)
O=C(NCCCCC(=O)N1CCC1)c1cc(-c2ccccc2)no1 [Example 55, N-(5-(azetidin-1-yl)-5-oxopentyl)-3-phenylisoxazole-5-carboxamide] | ++ (NAUC “++” refers to an observed NAUC 170-140% of positive control) | +++ (NAUC “+++” refers to an observed NAUC >170% of positive control)
CC(C)CCNC(=O)c1cc(-c2ccc(F)cc2)on1 [Example 31] | ++ (NAUC “++” refers to an observed NAUC 170-140% of positive control) | ++ (NAUC “++” refers to an observed NAUC 170-140% of positive control)
O=C(NCc1ccccc1)c1cc(-c2ccc(F)cc2)on1 [Example 27] | ++ (NAUC “++” refers to an observed NAUC 170-140% of positive control) | ++ (NAUC “++” refers to an observed NAUC 170-140% of positive control)
O=C(NCCC(=O)N1CCC1)c1cc(-c2ccccc2)no1 [Example 60, N-(3-(azetidin-1-yl)-3-oxopropyl)-3-phenylisoxazole-5-carboxamide] | +++ (NAUC “+++” refers to an observed NAUC >170% of positive control) | +++ (NAUC “+++” refers to an observed NAUC >170% of positive control)
O=C(NC[C@H]1CCCO1)c1cc(-c2ccc(F)cc2)on1 [Example 30] | ++ (NAUC “++” refers to an observed NAUC 170-140% of positive control) | ++ (NAUC “++” refers to an observed NAUC 170-140% of positive control)
O=C(NCc1cccnc1)c1cc(-c2ccc(F)cc2)on1 [Example 24] | ++ (NAUC “++” refers to an observed NAUC 170-140% of positive control) | ++ (NAUC “++” refers to an observed NAUC 170-140% of positive control)
NS(=O)(=O)c1ccc(CNC(=O)c2cc(-c3ccc(F)cc3)on2)cc1 [Example 18] | ++ (NAUC “++” refers to an observed NAUC 170-140% of positive control) | ++ (NAUC “++” refers to an observed NAUC 170-140% of positive control)
O=C(NCCC(=O)N1CCC1)c1cc(-c2ccc(F)cc2)on1 [Example 8] | +++ (NAUC “+++” refers to an observed NAUC >170% of positive control) | +++ (NAUC “+++” refers to an observed NAUC >170% of positive control)
O=C(NCCCCC(=O)N1CCC1)c1cc(-c2ccc(F)cc2)on1 [Example 16, N-(5-(azetidin-1-yl)-5-oxopentyl)-5-(4-fluorophenyl)isoxazole-3-carboxamide] | +++ (NAUC “+++” refers to an observed NAUC >170% of positive control) | +++ (NAUC “+++” refers to an observed NAUC >170% of positive control)
O=C(NCCC(=O)N1CCC1)c1cc(-c2ccccc2)on1 [Example 44, N-(3-(azetidin-1-yl)-3-oxopropyl)-5-phenylisoxazole-3-carboxamide] | +++ (NAUC “+++” refers to an observed NAUC >170% of positive control) | +++ (NAUC “+++” refers to an observed NAUC >170% of positive control)
O=C(CCNC(=O)c1cc(-c2ccc(F)cc2)on1)NCC1CC1 [Example 6] | ++ (NAUC “++” refers to an observed NAUC 170-140% of positive control) | +++ (NAUC “+++” refers to an observed NAUC >170% of positive control)
N#Cc1ccc(CNC(=O)c2cc(-c3ccc(F)cc3)on2)cc1 [Example 28] | + (NAUC “+” refers to an observed NAUC <140% of positive control) | + (NAUC “+” refers to an observed NAUC <140% of positive control)
O=C(CCNC(=O)c1cc(-c2ccc(F)cc2)on1)Nc1ccccn1 [Example 13] | + (NAUC “+” refers to an observed NAUC <140% of positive control) | ++ (NAUC “++” refers to an observed NAUC 170-140% of positive control)
O=C(NCc1cccc(F)c1F)c1cc(-c2ccc(F)cc2)on1 [Example 25] | + (NAUC “+” refers to an observed NAUC <140% of positive control) | + (NAUC “+” refers to an observed NAUC <140% of positive control)
CN1CCN(C(=O)CCCCNC(=O)c2cc(-c3ccccc3)on2)CC1 [Example 43, N-(5-(4-methylpiperazin-1-yl)-5-oxopentyl)-5-phenylisoxazole-3-carboxamide] | +++ (NAUC “+++” refers to an observed NAUC >170% of positive control) | +++ (NAUC “+++” refers to an observed NAUC >170% of positive control)
O=C(NCCCCC(=O)N1CCC1)c1cc(-c2ccccc2)on1 [Example 38, N-(5-(azetidin-1-yl)-5-oxopentyl)-5-phenylisoxazole-3-carboxamide] | +++ (NAUC “+++” refers to an observed NAUC >170% of positive control) | +++ (NAUC “+++” refers to an observed NAUC >170% of positive control)
